# Assay results: US20180282415A1, “Combination of a PD-1 Axis Binding Antagonist and an ALK Inhibitor for Treating ALK-Negative Cancer” (Merck Patent GmbH, priority 2015, published 2018)
# Columns and labels:
# [1] = test system: activated T cells; test: T cell viability, Cell-Titer Glo Luminescent Cell Viability Assay; type: cell-based, human; settings: for Luciferase RLU (T cell viability): log[Agonist]
# Method: Briefly, human cells were isolated from healthy donors' PBMCs by using EasySep™ Human T Cell Enrichment Kit (Stemcell Technologies) according to manufacturer's instruction. […] Cells were cultured in RPMI 1640 medium supplemented with 10% FCS and 100 I.U./mL penicillin/streptomycin in humidified incubator at 37° C. with 5% CO2. […] Culture supernatants were collected on Day 2 or 3 for cytokine analysis. Plates were then harvested on DNA specific filter papers (Perkin Elmer) using Harvester96 (Tomtec Life Sciences). The radiolabeled filters were covered with beta scintillation liquid (Perkin Elmer) and read in Microbeta® counter plates (Perkin Elmer). ^3H Thymidine was pulsed on Day 2 for T cell proliferation assay. The impact by sunitinib and axitinib on T cell proliferation and viability were repeated as previously published (FIGS. 1A and 1B).
# Cell viability was measured by Cell-Titer Glo Luminescent Cell Viability Assay® (Promega, Madison). […] Table 4 below provides the Luciferase RLU values reflecting T cell viability for each of the respective inhibitors.
# [2] = test system: CD3/CD28-stimulated effector cells (T cells from healthy donors' PBMCs); test: T cell proliferation assay (3H thymidine incorporation), CD3/CD28-stimulated T cells; type: cell-based, human; settings: for Thymidine incorporation(CPM): log[Agonist]
# Excerpt: Briefly, human cells were isolated from healthy donors' PBMCs by using EasySep™ Human T Cell Enrichment Kit (Stemcell Technologies) according to manufacturer's instruction. […] Culture supernatants were collected on Day 2 or 3 for cytokine analysis. Plates were then harvested on DNA specific filter papers (Perkin Elmer) using Harvester96 (Tomtec Life Sciences). The radiolabeled filters were covered with beta scintillation liquid (Perkin Elmer) and read in Microbeta® counter plates (Perkin Elmer). ^3H Thymidine was pulsed on Day 2 for T cell proliferation assay.
# [3] = test system: B16 skin melanoma; test: In vivo tumor efficacy, B16 melanoma model, PF-06463922 with anti-PD-L1 (Example 2); design: species or system C57BL/6 mice; settings: end of study (day 22 post tumor implant), n=10
# Method: (§1) The CT26 colon carcinoma cell line was purchased from ATCC® CRL-2638™. B16-F10 (‘B16’) melonoma cell lines were purchased from ATCC® CRL-6475™. Cells were cultured in DMEM medium supplemented with 10% fetal bovine serum, and 100 I.U./mL penicillin/streptomycin at 37° C. in an atmosphere of 5% CO2 in air, and IMPACT-tested for pathogens at Research Animal Diagnostic Laboratory (RADIL) (Columbia, Mo.). Pathogen-free cells growing in an exponential growth phase were harvested and used for tumor inoculation.
# (§2) Rat IgG2a isotype control were purchased from BioXcell (clone 2A3)(West Lebanon, N.H.).
# (§3) For the second study, C57BL/6 mice were inoculated subcutaneously in the right lower flank with 0.1 ml of 1×10^6 B16 skin melanoma cells. When tumor bearing mice achieved a mean tumor volume of 100 to 150 mm^3, mice were randomly assigned to 1 of 4 treatment groups, n=10.
# [4] = test system: CT26 colon carcinoma; test: In vivo tumor efficacy, CT26 model, PF-06463922 with anti-PD-L1 (Example 2); design: species or system Balb/c mice; settings: for Average tumor volume: anti-PD-L1 10 mg/kg i.p. every 3 days x3, PF-06463922 3 mg/kg orally once daily; for Effect on CT26 tumor growth: treatment started in tumors of 100-150 mm^3, compared with isotype
# Excerpt: Both CT26 colon carcinoma and B16 melonoma cell lines have published mutanome and transcriptome data, with no known ALK fusion events or oncogenic mutations. Castle et al, BMC Genomics, 15:190 (13 Mar. 2014); Castle et al, CAN 11:3722 (11 Jan. 2012). […] The percentage of TGI was defined as 1-(Tumor volumnTreated/Tumor volumnisotype control)×100.
# as §1, §2, §3
smiles,measurement,setting,value
"C[C@H]1Oc2cc(cnc2N)-c2c(nn(C)c2C#N)CN(C)C(=O)c2ccc(F)cc21 [PF-06463922, (10R)-7-amino-12-fluoro-2,10,16-trimethyl-15-oxo-10,15,16,17-tetrahydro-2H-8,4-(metheno)pyrazolo[4,3-h][2,5,11]benzoxadiazacyclotetradecine-3-carbonitrile]",Effect on T cell viability,[1]; FIG. 1B,did not result in dose-dependent decreases in T cell viability
same,Luciferase RLU (T cell viability),[1]; μM: 0,88.53 ± 0.7567 RLU
same,Luciferase RLU (T cell viability),[1]; μM: 1,89.118 ± 1.283 RLU
same,Luciferase RLU (T cell viability),[1]; μM: 2,88.6231 ± 1.573 RLU
same,Luciferase RLU (T cell viability),[1]; μM: 3,40.36 ± 9.736 RLU
same,Luciferase RLU (T cell viability),[1]; μM: −1,97.8625 ± 2.288 RLU
same,Luciferase RLU (T cell viability),[1]; μM: −2,95.86 ± 0.6202 RLU
same,Luciferase RLU (T cell viability),[1]; μM: −3,98.17 ± 0.6606 RLU
same,Effect on T cell proliferation,"[2]; activated T cells, FIG. 1A",did not have adverse effects on T cell proliferation
same,Thymidine incorporation(CPM),[2]; μM: 0,399866.7 ± 10135.82 CPM
same,Thymidine incorporation(CPM),[2]; μM: 1,364978.7 ± 37421.4 CPM
same,Thymidine incorporation(CPM),[2]; μM: 2,258875.3 ± 25269.1 CPM
same,Thymidine incorporation(CPM),[2]; μM: 3,94120.66 ± 2728.719 CPM
same,Thymidine incorporation(CPM),[2]; μM: −1,416579.3 ± 23523.21 CPM
same,Thymidine incorporation(CPM),[2]; μM: −2,411422.3 ± 13377.95 CPM
same,Thymidine incorporation(CPM),[2]; μM: −3,401448.3 ± 37205.07 CPM
same,animals with a complete response (tumor free),[3],no animals having a complete response
same,Average tumor volume,[4]; Day 5,181.85 ± 12.6828 mm^3
same,Average tumor volume,[4]; Day 9,253.14 ± 34.78 mm^3
same,Average tumor volume,[4]; Day 14,548.44 ± 96.03 mm^3
same,Average tumor volume,[4]; Day 17,962.02 ± 180.1961 mm^3
same,Average tumor volume,[4]; Day 21,1696.96 ± 285.9975 mm^3
same,tumor growth inhibition (TGI),"[4]; day 21 post tumor inoculation, relative to the isotype control",28.3%
same,Effect on CT26 tumor growth,[4],partially effective
same,Effect on CT26 tumor growth,[4]; listed as ALK inhibitor,did not consistently inhibit CT26 tumor growth
